Test results from BindingDB's records for doi:10.7270/Q22F7KVM (The Scripps Research Institute Molecular Screening Center, 2009).

Target: T1, Guanyl-specific ribonuclease T1 (Aspergillus oryzae (strain ATCC 42149 / RIB 40), UniProt P00651)
T1 sequence (P00651 whole entry): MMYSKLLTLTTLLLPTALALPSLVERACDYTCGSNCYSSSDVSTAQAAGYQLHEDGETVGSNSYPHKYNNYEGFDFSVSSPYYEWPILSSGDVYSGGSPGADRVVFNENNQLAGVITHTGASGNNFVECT
Test: RNase T1 inhibitors, dose response, counter-screen for TPT1 inhibitor project, biochemical, fluorescence polarization, 1536-well (AID 2167)

IC50: > 55.7 µM
Compound: Cc1ccc2nc(N=NCc3ccc([N+](=O)[O-])o3)nc(-c3ccccc3)c2c1
